Measurements taken from PubChem BioAssay AID624129 (Sanford-Burnham Center for Chemical Genomics, 2012).
Activity calls are given as the source filed them. No rule for the calls is given here.

Experiments:
Experiment in all cases: potency against CXCR6 with APJ panel – cell-based, beta-arrestin, DiscoveRx, uHTS hits, dose response (AID 624129)
[1] = molecular target: Apelin receptor (Homo sapiens) (UniProt P35414); conditions: CXCR6 beta-arrestin (DiscoveRx) antagonist cell assay, APJ
[2] = molecular target: Beta-galactosidase (Escherichia coli) (UniProt Q8VNN2); conditions: CXCR6 beta-arrestin (DiscoveRx) antagonist cell assay, b-galactosidase
Sequence of Beta-galactosidase (Escherichia coli) (Q8VNN2 whole entry, looked up): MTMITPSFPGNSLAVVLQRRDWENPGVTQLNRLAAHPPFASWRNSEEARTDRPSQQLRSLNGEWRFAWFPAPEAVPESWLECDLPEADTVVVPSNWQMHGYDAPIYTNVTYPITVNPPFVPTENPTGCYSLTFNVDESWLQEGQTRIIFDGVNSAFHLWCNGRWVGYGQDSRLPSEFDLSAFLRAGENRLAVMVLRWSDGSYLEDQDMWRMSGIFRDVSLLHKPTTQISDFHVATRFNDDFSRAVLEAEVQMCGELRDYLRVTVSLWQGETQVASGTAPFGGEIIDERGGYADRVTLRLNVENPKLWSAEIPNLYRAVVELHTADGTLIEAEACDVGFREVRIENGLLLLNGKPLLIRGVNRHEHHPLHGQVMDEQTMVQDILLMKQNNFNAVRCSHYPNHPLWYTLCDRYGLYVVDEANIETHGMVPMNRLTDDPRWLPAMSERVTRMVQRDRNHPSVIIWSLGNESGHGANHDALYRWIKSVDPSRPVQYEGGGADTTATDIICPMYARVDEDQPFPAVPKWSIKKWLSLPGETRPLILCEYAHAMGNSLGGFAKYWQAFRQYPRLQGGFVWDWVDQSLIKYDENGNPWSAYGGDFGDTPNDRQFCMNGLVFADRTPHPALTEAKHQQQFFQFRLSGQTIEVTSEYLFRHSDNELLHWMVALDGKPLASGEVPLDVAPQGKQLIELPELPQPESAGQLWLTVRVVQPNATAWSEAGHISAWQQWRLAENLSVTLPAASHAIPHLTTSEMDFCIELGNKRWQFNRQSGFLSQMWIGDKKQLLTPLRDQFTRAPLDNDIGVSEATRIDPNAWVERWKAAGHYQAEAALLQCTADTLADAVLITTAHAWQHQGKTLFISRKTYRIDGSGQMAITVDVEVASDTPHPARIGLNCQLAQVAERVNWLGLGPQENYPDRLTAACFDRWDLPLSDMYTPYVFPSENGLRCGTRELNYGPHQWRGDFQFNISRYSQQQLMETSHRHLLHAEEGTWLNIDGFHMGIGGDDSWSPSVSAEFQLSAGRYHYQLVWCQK

[3] = molecular target: C-C chemokine receptor type 6 (Homo sapiens) (UniProt P51684); conditions: CXCR6 beta-arrestin (DiscoveRx) antagonist cell assay
[4] = molecular target: C-X-C chemokine receptor type 6 (Homo sapiens) (UniProt O00574); conditions: CXCR6 beta-arrestin (DiscoveRx) antagonist cell assay; for inhibition: CXCR6, run 1, dose range 2, at 80 µM (top of the series)
Sequence of C-X-C chemokine receptor type 6 (Homo sapiens) (O00574 whole entry, looked up): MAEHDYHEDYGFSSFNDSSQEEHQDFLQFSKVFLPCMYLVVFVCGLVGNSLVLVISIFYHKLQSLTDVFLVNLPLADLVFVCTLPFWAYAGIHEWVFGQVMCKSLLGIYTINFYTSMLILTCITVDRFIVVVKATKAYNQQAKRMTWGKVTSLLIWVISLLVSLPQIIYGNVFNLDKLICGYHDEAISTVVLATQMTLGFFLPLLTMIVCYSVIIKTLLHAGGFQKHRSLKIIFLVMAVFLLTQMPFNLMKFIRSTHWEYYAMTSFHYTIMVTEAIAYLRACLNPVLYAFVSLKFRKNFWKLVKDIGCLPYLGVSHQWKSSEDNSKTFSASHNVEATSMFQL

[5] = dose range 1, mean IC50 across replicates
[6] = CCR6, dose range 1, mean IC50 across replicates
[7] = CXCR6, dose range 1, mean IC50 across replicates

| Structure (SMILES) | IC50 ([1]; dose range 1) | IC50 [1, 5] | IC50 ([1]; run 2, dose range 1) | IC50 ([1]; run 3, dose range 1) | IC50 ([2]; dose range 1) | IC50 [2, 5] | IC50 ([3]; CCR6, dose range 1) | IC50 [3, 6] | IC50 ([3]; CCR6, run 2, dose range 1) | IC50 ([4]; CXCR6, dose range 1) | IC50 [4, 7] | IC50 ([4]; CXCR6, run 1, dose range 2) | IC50 ([4]; CXCR6, run 2, dose range 1) | IC50 ([4]; CXCR6, run 2, dose range 2) | inhibition [4] |
| --- | --- | --- | --- | --- | --- | --- | --- | --- | --- | --- | --- | --- | --- | --- | --- |
| C=C1C(=O)[C@]23C[C@H]1CCC2[C@@]1(C)C(C[C@@H]3O)[C@](C)(C(=O)OC)CC[C@@H]1OC(C)=O (some centres not stated) | 9.62 µM | 21.3 µM | 8.73 µM | 45.6 µM | > 80 µM (inactive) | > 80 µM | 4.15 µM | 4.67 µM | 5.2 µM | 7.07 µM | 7.02 µM | 8.75 µM | 5.41 µM | 6.85 µM | – |
| COc1cc(/C=C/c2ccc3cccc(O)c3n2)cc(OC)c1OC | 4.36 µM | 5.15 µM | 4.59 µM | 6.51 µM | > 80 µM (inactive) | > 80 µM | 3.45 µM | 4.03 µM | 4.62 µM | 3.23 µM | 3.7 µM | 3.35 µM | 4.11 µM | 4.09 µM | – |
| COc1cc(/C=C/c2ccc3c(Br)cc(Br)c(O)c3n2)ccc1O | 20.3 µM | 23.7 µM | 18.8 µM | 32.2 µM | > 80 µM (inactive) | > 80 µM | 12.6 µM | 12.1 µM | 11.6 µM | inactive | 12.5 µM | 8.69 µM | 11.8 µM | 12.5 µM | – |
| CCCC(=O)OCCNc1cc(Sc2nc3ccccc3[nH]2)c2nonc2c1[N+](=O)[O-] | 12.4 µM | 9.49 µM | 5.87 µM | 10.2 µM | inactive | 50.4 µM | 5.26 µM | 5.55 µM | 5.83 µM | 5.82 µM | 6.71 µM | 7.57 µM | 6.36 µM | 7.1 µM | – |
| O=C(Nc1nc(-c2ccccn2)cs1)Nc1ccc(F)cc1F | 8.6 µM | 9.05 µM | 9.65 µM | 8.89 µM | > 80 µM (inactive) | > 80 µM | 8.74 µM | 10.1 µM | 11.5 µM | 11.4 µM | 8.93 µM | 5.96 µM | 11.5 µM | 6.87 µM | – |
| Cc1c(Cl)sn(-c2ccc(Cl)cc2)c1=O | 16.4 µM | 22.8 µM | 14.4 µM | 37.5 µM | > 80 µM (inactive) | > 80 µM | 3.26 µM | 3.71 µM | 4.17 µM | 8.91 µM | 9.37 µM | 11.2 µM | 7.95 µM | 9.39 µM | – |
| CCCCOc1ccc(C(=O)NNC(=S)NC(=O)CC)cc1 | 8.68 µM | 15.4 µM | 10.6 µM | 27.1 µM | > 80 µM (inactive) | > 80 µM | 7.58 µM | 8.35 µM | 9.11 µM | 7.96 µM | 10.4 µM | 7.49 µM | 16 µM | 10 µM | – |
| C=CS(=O)(=O)c1c2cc(OC)ccc2nc2ccc(OC)cc12 | 17 µM | 18.7 µM | 18.8 µM | 20.2 µM | > 80 µM (inactive) | > 80 µM | 10.8 µM | 11.7 µM | 12.5 µM | inactive | 12.5 µM | – | 10.1 µM | – | 117% |
| CCCCCCCCn1sccc1=O | 9.73 µM | 8.1 µM | 7.99 µM | 6.58 µM | > 80 µM (inactive) | > 80 µM | 6.52 µM | 6.83 µM | 7.14 µM | 6.96 µM | 8.16 µM | 6.75 µM | 8.67 µM | 10.2 µM | – |
| Oc1c(Cl)cc(Cl)c2cccnc12 | 3.23 µM | 3.82 µM | 4.91 µM | 3.34 µM | > 80 µM (inactive) | > 80 µM | 2.48 µM | 2.71 µM | 2.94 µM | 4.45 µM | 4.17 µM | – | 3.89 µM | – | 90.2% |
| C=CCn1nc([N+](=O)[O-])nc1Sc1cccc2cccnc12 | 75.1 µM | 49.3 µM | 36 µM | 36.8 µM | > 80 µM (inactive) | > 80 µM | 39 µM | 35.3 µM | 31.6 µM | inactive | 59.6 µM | – | > 80 µM | – | 82.2% |
| O=C1c2ccccc2C(=O)N1OS(=O)(=O)c1ccc(F)cc1 | 20 µM | 22 µM | 26.8 µM | 19.4 µM | > 80 µM (inactive) | > 80 µM | 17.7 µM | 34.6 µM | 51.5 µM | > 80 µM (inactive) | > 80 µM | – | > 80 µM | – | 69.8% |
| COc1ccc(CCN2C(=O)C=CC2=O)cc1OC | 9.45 µM | 21.1 µM | 8.84 µM | 45.1 µM | > 80 µM (inactive) | > 80 µM | 4.86 µM | 6.32 µM | 7.78 µM | 9.39 µM | 8.38 µM | – | 7.37 µM | – | 122% |

Second part, the molecule after the results:

| IC50 ([1]; dose range 1) | IC50 [1, 5] | IC50 ([1]; run 2, dose range 1) | IC50 ([1]; run 3, dose range 1) | IC50 ([2]; dose range 1) | IC50 [2, 5] | IC50 ([3]; CCR6, dose range 1) | IC50 [3, 6] | IC50 ([3]; CCR6, run 2, dose range 1) | IC50 ([4]; CXCR6, dose range 1) | IC50 [4, 7] | IC50 ([4]; CXCR6, run 1, dose range 2) | IC50 ([4]; CXCR6, run 2, dose range 1) | IC50 ([4]; CXCR6, run 2, dose range 2) | inhibition [4] | Structure (SMILES) |
| --- | --- | --- | --- | --- | --- | --- | --- | --- | --- | --- | --- | --- | --- | --- | --- |
| 3.71 µM | 4.54 µM | 5.03 µM | 4.88 µM | 3.65 µM | 3.65 µM | 2.72 µM | 2.47 µM | 2.23 µM | 3.59 µM | 2.93 µM | 2.45 µM | 2.76 µM | 2.93 µM | – | Cc1ccc(CN2C(=O)C(Cc3ccccc3)Nc3ncnc(N4CCN(c5ccccc5)CC4)c32)cc1 (configuration not stated) |
| 5.45 µM | 5.31 µM | 5.18 µM | > 80 µM | > 80 µM (inactive) | > 80 µM | 2.84 µM | 3.1 µM | 3.36 µM | 4.9 µM | 4.9 µM | – | > 80 µM | – | 128% | O=C1C=CC(=O)N1c1ccc(-c2nc3ccccc3o2)cc1 |
| 13.7 µM | 12.6 µM | 11.4 µM | > 80 µM | > 80 µM (inactive) | > 80 µM | 7.57 µM | 7.24 µM | 6.9 µM | 7.68 µM | 8.6 µM | 8.96 µM | 8.78 µM | 8.98 µM | – | COc1ccc(OC)c(NC(=O)c2nc(S(=O)(=O)Cc3ccccc3)ncc2Cl)c1 |
| 16.6 µM | 19.4 µM | 21.1 µM | 20.4 µM | > 80 µM (inactive) | > 80 µM | 11.4 µM | 11.5 µM | 11.6 µM | inactive | 12.1 µM | – | 9.21 µM | – | 126% | CCO[C@@H]1OC(C(=O)N2CCN(Cc3ccccc3)CC2)=C[C@H](c2ccc(Br)cc2)[C@H]1CCCO |
| – | > 80 µM | > 80 µM | > 80 µM | > 80 µM (inactive) | > 80 µM | – | > 80 µM | > 80 µM | > 80 µM (inactive) | > 80 µM | – | > 80 µM | – | -37.9% | COc1ccccc1-c1cc(C(F)(F)F)nc(S(=O)(=O)CCCC(=O)NCc2ccc(F)cc2)n1 |
| 2.32 µM | 2.46 µM | 2.59 µM | > 80 µM | > 80 µM (inactive) | > 80 µM | 2.07 µM | 2.25 µM | 2.44 µM | 2.76 µM | 2.31 µM | 2.01 µM | 2.94 µM | 1.51 µM | – | C/C(=N\NC(=O)COc1ccccc1-c1ccccc1)c1ccccn1 |
| – | > 80 µM | > 80 µM | > 80 µM | > 80 µM (inactive) | > 80 µM | – | > 80 µM | > 80 µM | > 80 µM (inactive) | > 80 µM | – | > 80 µM | – | -8.52% | CCOC(=O)c1c(SCCN2CCCC2)n(-c2ccccc2)c(=S)n(-c2ccccc2)c1=O |
| – | > 80 µM | > 80 µM | > 80 µM | > 80 µM (inactive) | > 80 µM | – | > 80 µM | > 80 µM | > 80 µM (inactive) | > 80 µM | – | > 80 µM | – | -19% | CCCC1CCC(=NNC(=S)NCCc2ccccc2)CC1 (configuration not stated) |
| 12.9 µM | 12 µM | 10.9 µM | 12.3 µM | > 80 µM (inactive) | > 80 µM | 12.5 µM | 14 µM | 15.5 µM | inactive | 12.5 µM | 6.99 µM | 18.4 µM | 11.2 µM | – | Cc1ccc2c(c1)C1CN(C)CCC1N2C(=S)NC(=O)c1ccc(Br)cc1 (configuration not stated) |
